In US11357873B2, “Chiral cyclen compounds and their uses” (THE HONG KONG POLYTECHNIC UNIVERSITY, priority 2016, dated 2022):
Marks after values point to notes of the source that are not given here.

Assays:
Type in all cases: physicochemical
[1] = Water solubility of complexes
[2] = Circularly polarized luminescence (CPL), dissymmetry factor glum; details: DMSO; wavelength in parentheses in the cell
[3] = Absorption and photoluminescence (quantum yield, lifetime, q); set-up: λabs(max): unit not given here
[4] = Rate of complexation of ligands with metal salts under mild (radiolabeling) conditions; details: pD 6.0-7.0, 50° C., 1H NMR titration

Row | SMILES | water solubility [1] | glum ΔJ = 1 (λ) DMSO [2] | glum ΔJ = 3 (λ) DMSO [2] | R, I(5D0 → 7F2)/I(5D0 → 7F1) ([3]; asymmetry ratio, room temperature, 10 in MeOH, 11 in DMSO) | q (calculated from ref 60) ([3]; from lifetimes in MeOH and MeOD) | ΦEuEu (%) ([3]; intrinsic quantum yield, calculated value) | τD2O/MeOD ([3]; luminescence lifetime, 5D0 → 7F2 transition, D2O (MeOD for 10)) | τH2O/MeOH ([3]; luminescence lifetime, 5D0 → 7F2 transition, H2O (MeOH for 10)) | ΦDMSO (%) ([3]; luminescence quantum yield in DMSO) | ΦH2O/MeOH (%) ([3]; luminescence quantum yield relative to quinine sulfate in 0.1M H2SO4, H2O (MeOH for 10, insoluble in H2O)) | λabs(max) ([3]; room temperature, 10 measured in MeOH, 11 in DMSO) | ηsens (%) ([3]; sensitization efficiency, calculated according to ref 61) | time to complete complexation with Eu(OTf)3 [4]
1 | COc1cc(OC)c(C#Cc2cc(CN3C[C@H](CC(C)C)N(CC(=O)[O-])C[C@H](CC(C)C)N(CC(=O)[O-])C[C@H](CC(C)C)N(CC(=O)[O-])C[C@@H]3CC(C)C)nc(P(C)(=O)[O-])c2)c(OC)c1.[Eu+3] [Complex 10] | poor water solubility | −0.11 (591) | −0.12 (657) | 3.01 | 0.05^g | 36.9% | 1.74 ms | 1.39 ms | 45.3% | 11.1% | 364 | 30.1% | 
2 | CC[C@H]1CN(CC(=O)O)[C@@H](CC)CN(CC(=O)O)[C@@H](CC)CN(CC(=O)O)[C@@H](CC)CN1CC(=O)O [Complex L2, 2,2′,2″,2′″-((2S,5S,8S,11S)-2,5,8,11-tetraethyl-1,4,7,10-tetraazacyclododecane-1,4,7,10-tetrayl)tetraacetic acid] |  |  |  |  |  |  |  |  |  |  |  |  | ≤ 5 min
